Values after ≈ are worked out from the molar mass of the structure shown.
Key:
[1] = test system: Pyricularia oryzae; test: microbe, parasite or virus in culture; format: cell-based; details: for minimum inhibitory concentration (MIC): Sabouraud's medium, 28° C., 2 days
[2] = test system: Staphylococcus aureus; test: Antimicrobial activity, agar dilution method; format: cell-based; details: bouillon medium, 37° C., 1 day
[3] = test system: K-562; test: Inhibition of proliferation of cancer cells (MTT), K-562; format: cell-based; details: 17 hours; for Inhibitory effect on proliferation, IC50 value (concentration to inhibit 50% of proliferation): K-562 (human chronic myelogenic leukemia cells)
Protocol: (§1) Inhibitory activity for proliferation of cancer cells of cytotrienins I, II, III and IV.
(§2) Human leukocyte cells K562 and HL-60 were incubated on PRM 1640 medium (comprising 10% of bovine serum) in a culture chamber saturated with 5% carbon dioxide and steam. To the medium was added a series of diluted cytotrienin I, II, III and IV. After 17 hours, MTT reagent was added and growth was measured.
K562: Human chronic myelogenic leukemia cells

[4] = test system: Pseudomonas aeruginosa; test: Antimicrobial activity, agar dilution method; format: cell-based; details: bouillon medium, 37° C., 1 day
[5] = test system: Chlorella vulgaris; test: Antimicrobial activity, agar dilution method; format: cell-based
[6] = test system: v-src^ts -NRK cell; test: Activity to revert v-src^ts-NRK cell to normal morphology; format: cell-based, rat; details: 32° C., 18 hours; also: key: +: weakly induce normal morphology; + +: induce normal morphology; + + +: highly induce normal morphology
Protocol: Activity of cytotrienins I, II, III and IV to revert v-src^ts -NRK cell (rat renal cell infected with temperature-sensitive Rous sarcoma virus) to normal morphology.
Many oncogenes encode tyrosine kinase. Among them, v-src is believed to encode non-receptor type tyrosine kinase to induce the cell to transformed morphology.
V-src^ts -NRK cell is typically cultured on Eagle's MEM medium containing 10% of bovine serum at 32° C. in a culture chamber which is saturated with 5% of carbon dioxide and steam. At the permissive temperature (32° C.), a series of diluted cytotrienin I, II, III and IV were added. After 18 hours, inducibility to normal morphology was analyzed.

[7] = test system: HL-60; test: Inhibition of proliferation of cancer cells (MTT), HL-60; format: cell-based; details: HL-60 (human acute promyelogenic leukemia cells), 17 hours
Protocol: as §1, §2
HL-60: Human acute promyelogenic leukemia cells

[8] = test system: Candida albicans; test: Antimicrobial activity, agar dilution method; format: cell-based; details: Sabouraud's medium, 28° C., 2 days
[9] = test system: Escherichia coli BE1186; test: Antimicrobial activity, agar dilution method; format: cell-based; details: bouillon medium, 37° C., 1 day
Protocol: Antimicrobial activity of cytotrienins I, II, III and IV
Cytotrienins I, II, III and IV were assayed by the agar dilution method in bouillon medium (examined microorganism; bacteria, 37° C., 1 day) and Sabouraud's medium (examined microorganism: fungus, 28° C., 2 days).

[10] = test system: v-src^ts -NRK cell; test: Inhibition of v-src^ts-NRK cell cycle (progress of S phase), flow cytometry; format: cell-based, rat; details: downshift 39° C. to 32° C., 18 hours
Protocol: Inhibitory activity for cell cycle of cytotrienins I, II, III and IV.
Generally cell divides and proliferates in accordance with a cell cycle including a series of phases such as M phase, G1 phase, S phase and G2 phase. If something happens in the control mechanism of cell cycle, homeostasis breaks and possibility of suffering from cancer or immune disease would increase.
When v--src^ts -NRK cell is cultured at non-permissive temperature (39° C.), the cell cycle stops at G0/G1 phase and if the temperature is downshifted to permissive temperature (32° C.), the cell advances to S phase and then repeats the proliferation. A series of diluted cytotrienin I, II, III and IV were added simlutaneously with the downshift and, after 18 hours, the advancement of cell cycle to S phase was analyzed by flow cytometry.

[11] = 48 h, read-out: minimum inhibitory concentration (MIC)
[12] = 24 h, read-out: minimum inhibitory concentration (MIC)

| SMILES | minimum inhibitory concentration (MIC) [1] [µg/mL] | minimum inhibitory concentration (MIC) [2] [µg/mL] | Inhibitory effect on proliferation, IC50 value (concentration to inhibit 50% of proliferation) [3] [ng/mL] | minimum inhibitory concentration (MIC) [4] [µg/mL] | minimum inhibitory concentration (MIC) [5] [µg/mL] | reversion activity to induce v-src^ts -NRK cell to normal morphology ([6]; 0.1 μg/ml) | reversion activity to induce v-src^ts -NRK cell to normal morphology ([6]; 1 μg/ml) | reversion activity to induce v-src^ts -NRK cell to normal morphology ([6]; 3 μg/ml) | reversion activity to induce v-src^ts -NRK cell to normal morphology ([6]; 10 μg/ml) | Inhibitory effect on proliferation, IC50 value (concentration to inhibit 50% of proliferation) [7] [ng/mL] | minimum inhibitory concentration (MIC) [8] [µg/mL] | minimum inhibitory concentration (MIC) [9] [µg/mL] | Inhibition effect on v-src^ts -NRK cell cycle ([10]; 0.03 μg/ml) | Inhibition effect on v-src^ts -NRK cell cycle ([10]; 0.1 μg/ml) | Inhibition effect on v-src^ts -NRK cell cycle ([10]; 0.3 μg/ml) | Inhibition effect on v-src^ts -NRK cell cycle ([10]; 1 μg/ml) | Inhibition effect on v-src^ts -NRK cell cycle ([10]; 3 μg/ml) | reversion activity to induce v-src^ts -NRK cell to normal morphology ([6]; 0.3 μg/ml) | other results |
| --- | --- | --- | --- | --- | --- | --- | --- | --- | --- | --- | --- | --- | --- | --- | --- | --- | --- | --- | --- |
| COC1C=CC=CC=CCC(OC(=O)C2(NC(=O)C3CCCCC3)CC2)C(C)C(O)C(C)=CCCC2=CC(=O)C=C(NC(=O)C1)C2=O (centres unmarked) [Cytotrienin IV, cytotrienin IV] | 12.5 (≈ 19.3 µM) | > 100 | 1 | > 100 | > 100 | + + | + + + | + + + | + + + | 1 | > 100 | > 100 | + + | + + + | + + + | + + + | + + + |  |  |
| COC1C=CC=CC=CCC(OC(=O)C2(NC(=O)C3=CCCCC3)CC2)C(C)C(O)C(C)=CCCc2cc(O)cc(c2O)NC(=O)C1 (centres unmarked) [Cytotrienin I, cytotrienin I] |  |  |  |  |  | + | + + + | + + + | + + + |  |  |  | + | + + | + + + | + + + | + + + | + + | MIC [1, 11]: 12.5 µg/mL (≈ 19.3 µM); MIC [2, 12]: > 100 µg/mL; IC50 ([3]; K562, K-562 (human chronic myelogenic leukemia cells), read-out: Inhibitory effect on proliferation, IC50 value (concentration to inhibit 50% of proliferation)): 0.02 µg/mL (≈ 0.0308 µM); MIC [4, 12]: > 100 µg/mL; MIC ([5]; read-out: minimum inhibitory concentration (MIC)): > 100 µg/mL; IC50 ([7]; read-out: Inhibitory effect on proliferation, IC50 value (concentration to inhibit 50% of proliferation)): 5 ng/mL (≈ 0.00771 µM); MIC [8, 11]: > 100 µg/mL; MIC [9, 12]: > 100 µg/mL |
| COC1C=CC=CC=CCC(OC(=O)C2(NC(=O)C3=CCCCC3)CC2)C(C)C(O)C(C)=CCCC2=CC(=O)C=C(NC(=O)C1)C2=O (centres unmarked) [Cytotrienin III, cytotrienin III] | 12.5 (≈ 19.3 µM) | > 100 | 5 | > 100 | > 100 | + + | + + + | + + + | + + + | 1 | > 100 | > 100 | + + | + + + | + + + | + + + | + + + | + + + |  |
| COC1C=CC=CC=CCC(OC(=O)C2(NC(=O)C3CCCCC3)CC2)C(C)C(O)C(C)=CCCc2cc(O)cc(c2O)NC(=O)C1 (centres unmarked) [Cytotrienin II, cytotrienin II] | 12.5 (≈ 19.2 µM) | > 100 | 5 | > 100 | > 100 | + | + + + | + + + | + + + | 5 | > 100 | > 100 | + | + + | + + + | + + + | + + + | + |  |
